Laboratory results taken from ChEMBL document CHEMBL3991601, “The target landscape of clinical kinase drugs” (Science, 2017).
Calls of active or inactive are those of the source. Rule as the data show it, for most assays here: actives have a measured Kd and inactives only a lower limit.

How the values were obtained:
Activin receptor type-1 = target: T1, Activin receptor type-1 (Homo sapiens, UniProt Q04771)
T1 sequence (Q04771 whole entry): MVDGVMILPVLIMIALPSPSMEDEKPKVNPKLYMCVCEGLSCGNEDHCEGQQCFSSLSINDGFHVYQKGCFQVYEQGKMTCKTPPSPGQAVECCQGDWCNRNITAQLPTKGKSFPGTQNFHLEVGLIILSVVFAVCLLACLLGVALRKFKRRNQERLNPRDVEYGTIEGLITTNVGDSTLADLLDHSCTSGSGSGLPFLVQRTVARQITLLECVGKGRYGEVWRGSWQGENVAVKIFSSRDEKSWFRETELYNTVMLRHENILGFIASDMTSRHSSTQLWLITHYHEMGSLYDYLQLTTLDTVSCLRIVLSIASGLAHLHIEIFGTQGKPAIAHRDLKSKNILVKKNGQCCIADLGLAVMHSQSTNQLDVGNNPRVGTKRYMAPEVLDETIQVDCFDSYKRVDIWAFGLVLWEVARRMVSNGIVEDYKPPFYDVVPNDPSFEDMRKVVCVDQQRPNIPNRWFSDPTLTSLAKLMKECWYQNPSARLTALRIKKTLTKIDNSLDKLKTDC

[1] = target: Cyclin-dependent kinase 3 (Homo sapiens, UniProt Q00526)
[2] = target: Mitogen-activated protein kinase kinase kinase 4 (Homo sapiens, UniProt Q9Y6R4)
Deoxycytidine kinase = Deoxycytidine kinase (Homo sapiens, UniProt P27707)
[3] = target: T2, Membrane-associated tyrosine- and threonine-specific cdc2-inhibitory kinase (Homo sapiens, UniProt Q99640)
T2 sequence (Q99640 whole entry): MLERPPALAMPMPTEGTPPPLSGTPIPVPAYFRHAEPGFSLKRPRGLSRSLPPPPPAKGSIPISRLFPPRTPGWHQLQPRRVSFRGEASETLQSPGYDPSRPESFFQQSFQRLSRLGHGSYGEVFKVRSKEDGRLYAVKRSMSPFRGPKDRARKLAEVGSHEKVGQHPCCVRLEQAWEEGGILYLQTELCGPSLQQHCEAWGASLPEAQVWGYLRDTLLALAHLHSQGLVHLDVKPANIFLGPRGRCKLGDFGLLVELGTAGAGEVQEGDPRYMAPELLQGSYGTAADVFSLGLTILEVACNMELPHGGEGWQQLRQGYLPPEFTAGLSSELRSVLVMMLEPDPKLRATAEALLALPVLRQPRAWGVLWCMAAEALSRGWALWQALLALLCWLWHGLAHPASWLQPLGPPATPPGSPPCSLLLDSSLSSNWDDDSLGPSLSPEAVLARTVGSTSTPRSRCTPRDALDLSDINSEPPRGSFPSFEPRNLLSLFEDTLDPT

LIM domain kinase 2 = LIM domain kinase 2 (Homo sapiens, UniProt P53671)
[4] = target: Tyrosine-protein kinase Lyn (Homo sapiens, UniProt P07948)
[5] = target: T3, Serine/threonine-protein kinase 3 (Homo sapiens, UniProt Q13188)
T3 sequence (Q13188 whole entry): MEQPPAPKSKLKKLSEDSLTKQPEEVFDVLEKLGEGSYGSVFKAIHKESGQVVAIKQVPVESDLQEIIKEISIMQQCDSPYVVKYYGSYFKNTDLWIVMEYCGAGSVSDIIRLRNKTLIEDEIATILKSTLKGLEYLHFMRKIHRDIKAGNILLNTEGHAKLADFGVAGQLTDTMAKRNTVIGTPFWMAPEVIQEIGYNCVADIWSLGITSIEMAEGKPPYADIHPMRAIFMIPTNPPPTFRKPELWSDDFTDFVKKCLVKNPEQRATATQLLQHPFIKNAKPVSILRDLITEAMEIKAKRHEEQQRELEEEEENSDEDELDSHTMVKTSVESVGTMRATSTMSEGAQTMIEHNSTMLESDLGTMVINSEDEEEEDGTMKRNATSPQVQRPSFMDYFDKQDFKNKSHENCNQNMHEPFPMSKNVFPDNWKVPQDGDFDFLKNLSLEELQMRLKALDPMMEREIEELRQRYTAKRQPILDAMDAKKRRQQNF

[6] = target: Tyrosine-protein kinase CSK (Homo sapiens, UniProt P41240)
[7] = target: T4, NUAK family SNF1-like kinase 2 (Homo sapiens, UniProt Q9H093)
T4 sequence (Q9H093 whole entry): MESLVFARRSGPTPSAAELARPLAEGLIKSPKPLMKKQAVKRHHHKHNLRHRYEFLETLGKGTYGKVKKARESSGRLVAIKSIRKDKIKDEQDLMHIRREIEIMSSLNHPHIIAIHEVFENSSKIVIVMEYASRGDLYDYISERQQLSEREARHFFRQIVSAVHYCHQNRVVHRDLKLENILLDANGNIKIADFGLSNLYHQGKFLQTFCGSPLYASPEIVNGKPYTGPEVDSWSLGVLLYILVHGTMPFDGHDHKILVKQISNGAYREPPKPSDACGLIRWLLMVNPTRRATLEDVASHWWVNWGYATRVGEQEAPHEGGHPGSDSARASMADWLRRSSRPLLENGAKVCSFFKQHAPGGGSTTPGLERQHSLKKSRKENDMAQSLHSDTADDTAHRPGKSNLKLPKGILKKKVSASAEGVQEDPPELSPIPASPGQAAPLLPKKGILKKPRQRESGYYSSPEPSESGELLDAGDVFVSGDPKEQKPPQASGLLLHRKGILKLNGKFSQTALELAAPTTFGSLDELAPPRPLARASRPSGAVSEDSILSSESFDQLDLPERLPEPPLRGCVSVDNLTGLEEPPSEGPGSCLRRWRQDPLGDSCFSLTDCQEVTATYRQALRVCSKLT
Also: in the data inactive means no Kd found up to 30 µM.

Chain of Mitogen-activated protein kinase kinase kinase 4 (Q9Y6R4 whole entry): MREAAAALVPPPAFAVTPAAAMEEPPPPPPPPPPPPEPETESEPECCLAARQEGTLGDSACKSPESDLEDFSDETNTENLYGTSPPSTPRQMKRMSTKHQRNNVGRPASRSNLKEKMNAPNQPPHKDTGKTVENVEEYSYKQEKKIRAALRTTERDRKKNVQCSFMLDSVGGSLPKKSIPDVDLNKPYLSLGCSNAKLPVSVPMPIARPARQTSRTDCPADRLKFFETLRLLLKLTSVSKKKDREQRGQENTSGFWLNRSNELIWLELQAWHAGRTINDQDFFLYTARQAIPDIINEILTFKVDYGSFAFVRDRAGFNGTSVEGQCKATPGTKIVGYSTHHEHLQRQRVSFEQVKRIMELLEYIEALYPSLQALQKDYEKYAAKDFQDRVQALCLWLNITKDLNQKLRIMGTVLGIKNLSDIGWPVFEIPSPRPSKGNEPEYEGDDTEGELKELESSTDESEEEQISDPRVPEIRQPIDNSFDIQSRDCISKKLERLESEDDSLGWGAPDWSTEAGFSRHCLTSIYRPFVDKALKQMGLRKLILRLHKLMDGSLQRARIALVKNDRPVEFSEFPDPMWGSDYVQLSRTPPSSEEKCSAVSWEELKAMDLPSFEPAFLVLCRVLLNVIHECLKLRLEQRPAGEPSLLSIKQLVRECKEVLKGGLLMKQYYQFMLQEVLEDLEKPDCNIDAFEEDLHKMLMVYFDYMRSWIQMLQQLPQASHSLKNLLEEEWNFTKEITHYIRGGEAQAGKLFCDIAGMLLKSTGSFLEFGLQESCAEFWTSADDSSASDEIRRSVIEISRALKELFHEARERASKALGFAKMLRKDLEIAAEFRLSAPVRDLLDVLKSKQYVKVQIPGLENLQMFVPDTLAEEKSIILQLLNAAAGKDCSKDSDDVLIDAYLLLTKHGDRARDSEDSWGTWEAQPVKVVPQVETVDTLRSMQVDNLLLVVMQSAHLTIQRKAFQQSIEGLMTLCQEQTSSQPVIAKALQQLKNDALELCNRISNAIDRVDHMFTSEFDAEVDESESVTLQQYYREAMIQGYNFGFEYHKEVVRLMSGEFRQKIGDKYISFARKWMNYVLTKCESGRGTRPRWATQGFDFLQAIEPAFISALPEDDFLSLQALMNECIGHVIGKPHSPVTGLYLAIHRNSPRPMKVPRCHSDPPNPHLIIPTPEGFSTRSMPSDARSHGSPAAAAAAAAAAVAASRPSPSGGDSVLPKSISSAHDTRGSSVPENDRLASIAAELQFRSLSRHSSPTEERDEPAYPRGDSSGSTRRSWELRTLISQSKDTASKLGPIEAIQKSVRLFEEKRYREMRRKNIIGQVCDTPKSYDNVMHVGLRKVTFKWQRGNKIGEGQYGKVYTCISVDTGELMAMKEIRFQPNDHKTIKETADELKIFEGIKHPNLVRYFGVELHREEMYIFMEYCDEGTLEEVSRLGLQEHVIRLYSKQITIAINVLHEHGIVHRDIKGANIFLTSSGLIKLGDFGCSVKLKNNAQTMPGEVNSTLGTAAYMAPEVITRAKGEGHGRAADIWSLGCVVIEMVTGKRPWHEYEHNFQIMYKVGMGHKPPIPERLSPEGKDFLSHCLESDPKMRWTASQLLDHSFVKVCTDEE
Chain of Deoxycytidine kinase (P27707 whole entry): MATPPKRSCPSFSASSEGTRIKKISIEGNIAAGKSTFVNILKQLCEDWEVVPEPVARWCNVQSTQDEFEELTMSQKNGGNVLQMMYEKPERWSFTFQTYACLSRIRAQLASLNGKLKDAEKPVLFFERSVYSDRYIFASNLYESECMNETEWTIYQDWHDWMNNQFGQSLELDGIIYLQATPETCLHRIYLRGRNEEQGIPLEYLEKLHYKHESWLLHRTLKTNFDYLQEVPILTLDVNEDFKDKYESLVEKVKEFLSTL
Chain of LIM domain kinase 2 (P53671 whole entry, the tested form may be a part): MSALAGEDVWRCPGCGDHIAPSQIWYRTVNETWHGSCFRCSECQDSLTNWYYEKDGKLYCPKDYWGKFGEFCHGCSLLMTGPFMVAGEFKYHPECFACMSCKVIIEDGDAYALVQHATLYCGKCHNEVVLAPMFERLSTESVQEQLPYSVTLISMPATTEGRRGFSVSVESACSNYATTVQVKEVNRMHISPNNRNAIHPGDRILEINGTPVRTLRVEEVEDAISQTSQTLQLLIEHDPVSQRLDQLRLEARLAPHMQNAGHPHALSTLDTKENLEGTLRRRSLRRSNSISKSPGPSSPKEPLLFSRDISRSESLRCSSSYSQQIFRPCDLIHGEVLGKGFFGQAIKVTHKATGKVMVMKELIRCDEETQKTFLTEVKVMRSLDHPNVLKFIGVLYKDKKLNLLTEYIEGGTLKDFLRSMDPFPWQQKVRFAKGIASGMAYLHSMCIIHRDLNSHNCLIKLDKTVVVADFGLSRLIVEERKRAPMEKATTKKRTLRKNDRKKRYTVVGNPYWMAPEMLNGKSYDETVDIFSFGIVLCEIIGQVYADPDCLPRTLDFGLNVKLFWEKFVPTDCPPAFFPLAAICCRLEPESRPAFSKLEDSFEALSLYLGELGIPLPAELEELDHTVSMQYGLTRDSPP
Chain of Tyrosine-protein kinase Lyn (P07948 whole entry): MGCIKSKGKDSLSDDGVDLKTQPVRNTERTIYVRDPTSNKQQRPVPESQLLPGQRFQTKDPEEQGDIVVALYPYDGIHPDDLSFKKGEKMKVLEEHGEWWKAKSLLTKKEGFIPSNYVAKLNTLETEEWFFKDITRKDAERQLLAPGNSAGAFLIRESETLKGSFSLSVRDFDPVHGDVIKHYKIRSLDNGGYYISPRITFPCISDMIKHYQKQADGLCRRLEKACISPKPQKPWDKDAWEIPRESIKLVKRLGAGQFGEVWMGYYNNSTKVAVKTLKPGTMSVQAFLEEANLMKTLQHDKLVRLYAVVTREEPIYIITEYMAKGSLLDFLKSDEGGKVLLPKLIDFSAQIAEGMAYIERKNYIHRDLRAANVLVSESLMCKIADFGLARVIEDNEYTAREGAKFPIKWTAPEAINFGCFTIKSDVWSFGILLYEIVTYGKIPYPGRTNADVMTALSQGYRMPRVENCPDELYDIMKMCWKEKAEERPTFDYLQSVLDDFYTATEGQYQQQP
Chain of Cyclin-dependent kinase 3 (Q00526 whole entry): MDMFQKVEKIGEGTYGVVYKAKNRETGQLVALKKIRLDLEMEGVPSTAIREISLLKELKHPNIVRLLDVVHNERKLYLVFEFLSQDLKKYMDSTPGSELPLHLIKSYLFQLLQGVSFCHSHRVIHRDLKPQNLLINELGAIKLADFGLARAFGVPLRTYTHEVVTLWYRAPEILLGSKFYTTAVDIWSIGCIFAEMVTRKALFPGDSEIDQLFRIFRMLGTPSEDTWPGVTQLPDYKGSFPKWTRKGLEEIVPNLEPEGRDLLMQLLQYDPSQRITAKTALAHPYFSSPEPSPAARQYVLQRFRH

Kd (Activin receptor type-1) | Kd [1] | Kd [2] | Kd (Deoxycytidine kinase) | Kd [3] | Kd (LIM domain kinase 2) | Kd [4] | Kd [5] | Kd [6] | Kd [7] | Compound
> 30 µM (inactive) | > 30 µM (inactive) | > 30 µM (inactive) | > 30 µM (inactive) | > 30 µM (inactive) | > 30 µM (inactive) | > 30 µM (inactive) | > 30 µM (inactive) | > 30 µM (inactive) | > 30 µM (inactive) | Cc1ccc(C(=O)Nc2ccc(Oc3cc4cnn(C)c4cc3-c3cn[nH]c3)c(F)c2)c(=O)n1-c1ccc(F)cc1 [MERESTINIB]
> 30 µM (inactive) | > 30 µM (inactive) | > 30 µM (inactive) | > 30 µM (inactive) | > 30 µM (inactive) | > 30 µM (inactive) | > 30 µM (inactive) | > 30 µM (inactive) | > 30 µM (inactive) | > 30 µM (inactive) | Cn1c(=O)n(-c2ccc(C(C)(C)C#N)cc2)c2c3cc(-c4cnc5ccccc5c4)ccc3ncc21 [DACTOLISIB]
> 30 µM (inactive) | > 30 µM (inactive) | > 30 µM (inactive) | > 30 µM (inactive) | > 30 µM (inactive) | > 30 µM (inactive) | > 30 µM (inactive) | > 30 µM (inactive) | > 30 µM (inactive) | > 30 µM (inactive) | COc1cccc2cc(-c3nc([C@H]4CC[C@H](C(=O)O)CC4)n4ncnc(N)c34)[nH]c12 [OSI-027]
> 30 µM (inactive) | > 30 µM (inactive) | > 30 µM (inactive) | > 30 µM (inactive) | > 30 µM (inactive) | > 30 µM (inactive) | > 30 µM (inactive) | > 30 µM (inactive) | > 30 µM (inactive) | > 30 µM (inactive) | Cc1cc(C(=O)Nc2cc(Oc3ccc4nc(NC(=O)C5CC5)cn4n3)ccc2C)n(C)n1 [TAK-593]
> 30 µM (inactive) | > 30 µM (inactive) | > 30 µM (inactive) | > 30 µM (inactive) | > 30 µM (inactive) | > 30 µM (inactive) | > 30 µM (inactive) | > 30 µM (inactive) | > 30 µM (inactive) | > 30 µM (inactive) | NC(=O)c1ccc(N(C(N)=O)c2c(F)cccc2F)nc1-c1ccc(F)cc1F [VX-702]
> 30 µM (inactive) | > 30 µM (inactive) | > 30 µM (inactive) | > 30 µM (inactive) | > 30 µM (inactive) | > 30 µM (inactive) | > 30 µM (inactive) | > 30 µM (inactive) | > 30 µM (inactive) | > 30 µM (inactive) | c1cc(OCCN2CCCCC2)cc(-c2n[nH]c3ccc(-c4nc[nH]n4)cc23)c1 [CC-401]

Compound | Kd (Activin receptor type-1) | Kd [1] | Kd [2] | Kd (Deoxycytidine kinase) | Kd [3] | Kd (LIM domain kinase 2) | Kd [4] | Kd [5] | Kd [6] | Kd [7]
Cn1cc(-c2[nH]c3cc(NC(=O)[C@H](N)C4CCCCC4)cc4c3c2C=NNC4=O)cn1 | > 30 µM (inactive) | > 30 µM (inactive) | > 30 µM (inactive) | > 30 µM (inactive) | > 30 µM (inactive) | 0.205 µM (active) | 0.331 µM (active) | > 30 µM (inactive) | > 30 µM (inactive) | > 30 µM (inactive)
C=CC(=O)Nc1cc(Nc2nccc(-c3cn(C)c4ccccc34)n2)c(OC)cc1N(C)CCN(C)C [OSIMERTINIB] | > 30 µM (inactive) | > 30 µM (inactive) | > 30 µM (inactive) | > 30 µM (inactive) | > 30 µM (inactive) | > 30 µM (inactive) | > 30 µM (inactive) | > 30 µM (inactive) | > 30 µM (inactive) | > 30 µM (inactive)
CNC(=O)c1ccc(Nc2ncc(C(F)(F)F)c(NCc3nccnc3N(C)S(C)(=O)=O)n2)cc1 [DEFACTINIB] | > 30 µM (inactive) | > 30 µM (inactive) | > 30 µM (inactive) | > 30 µM (inactive) | > 30 µM (inactive) | > 30 µM (inactive) | > 30 µM (inactive) | 4.95 µM (active) | > 30 µM (inactive) | 0.454 µM
CN1CCN(c2nc(C3=C(c4c[nH]c5ccccc45)C(=O)NC3=O)c3ccccc3n2)CC1 [SOTRASTAURIN] | > 30 µM (inactive) | > 30 µM (inactive) | > 30 µM (inactive) | > 30 µM (inactive) | > 30 µM (inactive) | > 30 µM (inactive) | > 30 µM (inactive) | > 30 µM (inactive) | > 30 µM (inactive) | > 30 µM (inactive)
